Results: patent publication US20240197742A1, “Therapeutic Combinations of a CD19 Inhibitor and a BTK Inhibitor” (Acerta Pharma B.V., priority 2015, published 2024)
pEC50, pIC50: −log10 of the molar value. Entries after “also recorded” stand apart in the source; their conditions may differ.

Key:
[1] = tested on: B cell receptor; experiment: Whole blood potency: CD69 on CD19+ B cells after anti-human IgD; format: cell-based; settings: blood from four healthy donors, 2 hours with compound, anti-human IgD 10 μg/mL 18 hours, read-out: EC50, CD69 on gated CD19+ B cells in whole blood
[2] = tested on: Raji; experiment: ADCC chromium release assay, Raji targets; format: cell-based, human; settings: 1 μM; all rituximab concentrations; healthy donor NK cells
Method: All in vitro experiments were performed in triplicate.
ADCC assays were performed as follows. Briefly, target cells (Raji or primary CLL) were labeled by incubation at 37° C. with 100 μCi ^51Cr for 4 hours prior to co-culture with NK cells. Cells were washed, enumerated, and then added in triplicate to prepared 96-well plates containing treated NK cells at an effector:target (E:T) ratio of 25:1. […] Cultures were incubated at 37° C. for 4 hours, and then centrifuged. Supernatants were harvested and ^51Cr release was measured by liquid scintillation counting. All experiments were performed in triplicate.

[3] = within the tested dose range (through 840 mg); cited from earlier work
[4] = tested on: regulatory T cell (Treg); experiment: Treg development from enriched CD4+ T cells; format: cell-based; settings: anti-TCRβ plus anti-CD28, skewing cytokines, 4 days
Method: (§1) Enriched CD4^+ T cells are plated on 24-well culture dishes that have been precoated 2 hr with 250 μL anti-TCRβ (0.5 μg/mL) plus anti-CD28 (5 μg/mL) at 37° C. in PBS. The cells are then supplemented with media containing BTK inhibitors along with the skewing cytokines as indicated in the following. The Th17 and Treg cultures are grown for 4 days before analysis. The cells are maintained for an additional 3 days with skewing cytokines (Th17; 20 ng/mL IL-6, 0.5 ng/mL TGF-β, 5 μg/mL IL-4, 5 μg/mL IFN-γ and Treg; 0.5 ng/mL TGF-β, 5 μg/mL IL-4, 5 μg/mL IFN-γ) and are supplemented with IL2 as a growth factor.

[5] = tested on: CD8+ T cells; experiment: CD8+ T cell viability; format: cell-based; settings: anti-TCR and anti-CD28 coated wells, neutral conditions, 4 days
Method: Total T cells were plated on anti-TCR and anti-CD28 coated wells in the presence of both BTK inhibitors. Neutral culture conditions were used that will not polarize T cells to a helper lineage. […] Statistical significance was calculated using the Mann Whitney T-test.

[6] = tested on: GPVI; experiment: GPVI platelet aggregation (convulxin); format: cell-based, human
Method: GPVI platelet aggregation was measured for Formula (2) and Formula (10) (ibrutinib). Blood was obtained from untreated humans, and platelets were purified from […] by centrifugation. Cells were resuspended to a final concentration of 350,000/μL in buffer containing 145 mmol/L NaCl, 10 mmol/L HEPES, 0.5 mmol/L Na2HPO4, 5 mmol/L KCl, 2 mmol/L MgCl2, 1 mmol/L CaCl2, and 0.1% glucose, at pH 7.4. Stock solutions of Convulxin (CVX) GPVI were prepared on the day of experimentation and added to platelet suspensions 5 minutes (37° C., 1200 rpm) before the induction of aggregation. Aggregation was assessed with a Chronolog Lumi-Aggregometer (model 540 VS; Chronolog, Havertown, PA) and permitted to proceed for 6 minutes after the addition of agonist. The results are reported as maximum percent change in light transmittance from baseline with platelet buffer used as a reference.
In FIG. 72, the results of CVX-induced (250 ng/mL) human platelet aggregation results before and 15 minutes after administration of the BTK inhibitors to 6 healthy individuals are shown.

[7] = tested on: Th17 cells; experiment: Th17 development from enriched CD4+ T cells; format: cell-based; settings: anti-TCRβ plus anti-CD28, skewing cytokines, 4 days
Method: as §1

[8] = tested on: CD8+ T cells; experiment: Cytotoxic T cell (CTL) assay; format: cell-based; settings: 500 nM, relative to vehicle
Method: Without being bound by any theory, CD8^+ T cells have two primary effector functions: (1) produce large amounts of IFN-γ (which activates macrophages), and (2) cytolytic activity. […] The targets were B lymphoblasts from lipopolysaccharide (LPS) treated cultures. The assay was performed by incubating different ratios of effectors:targets for 4 hours.

Structure (SMILES)	pEC50 [1]	cell lysis, Raji [2] [%]	maximum tolerated dose (MTD) [3]	effect on Treg development [4]	effect on Treg development ([4]; listed as ibrutinib)	effect on CD8+ T cell viability [5]	effect on GPVI platelet aggregation ([6]; CVX-induced human platelet aggregation)	pIC50 ([6]; purified human platelets, convulxin (CVX))	effect on Th17 cells / Th17 development [7]	effect on Th17 cells / Th17 development ([7]; listed as ibrutinib)	CD8+ T cell function as measured by % cytotoxicity ([8]; 4 days CTL generation)	CD8+ T cell function as measured by IFN-γ level [8]
C=CC(=O)Nc1cccc(Nc2nc(Nc3ccc(OCCOC)cc3)ncc2F)c1 [Formula (17), N-(3-((5-fluoro-2-((4-(2-methoxyethoxy)phenyl)amino)pyrimidin-4-yl)amino)phenyl)acrylamide]	6.92											
C=CC(=O)N1CCC[C@@H](n2nc(-c3ccc(Oc4ccccc4)cc3)c3c(N)ncnc32)C1 [Formula (10), 1-[(3R)-3-[4-amino-3-(4-phenoxyphenyl)-1H-pyrazolo[3,4-d]pyrimidin-1-yl]piperidin-1-yl]prop-2-en-1-one]	8.21	< 20	No maximum tolerated dose (MTD) was apparent	strongly increases	increase	strong, negative effect; also recorded: strongly affects	significantly inhibits	6.89	strongly inhibits	profound inhibition	affects	significant loss of function; also recorded: affects
